The values that follow come from patent publication EP2062578A1, “Novel use of chemical compounds for the treatment of AIDS” (priority 2007, dated 2009).

For one assay, the target named is T1, Nef57-205 (Human immunodeficiency virus type 1 group M subtype B, UniProt P03406).
T1 construct: Purified Nef57-205, as described in Arold et al, Structure 1997 5(10) p 1361); made in house
Briefly: Isothermal Titration Calorimetry (ITC) binding to Nef57-205. Details: species or system HIV-1. The conditions noted are these: for ΔH: enthalpy variation; for ΔH / TΔS / ΔG / N: ITC at 25 °C; for TΔS: entropy variation; for ΔG: free enthalpy variation; for N: stoichiometry, Compound X in 20 mM Hepes pH 7.0, Compound Y in 20 mM Na-phosphate pH 8.0, 100 mM NaCl, 5% DMSO. The protocol:
Isothermal titration calorimetry (ITC) is used to investigate in vitro the binding affinity and thermodynamic parameters of the inhibitory molecules.
Purified Nef57-205, as described in Arold et al, Structure 1997 5(10) p 1361) was extensively dialyzed in degassed ITC buffer (20 mM Hepes pH 7.0, 100 mM NaCl, 5% DMSO), except for binding experiments with Compound Y, where 20 mM Na-phosphate pH 8.0, 100 mM NaCl, 5% DMSO was used as buffer. Synthetic inhibitors were first dissolved at 10 mM in 100% DMSO, and then diluted to 300 - 400 µM in ITC buffer with DMSO concentration adjusted to 5%. Inhibitors were injected from the 300 µL syringe into the 1.4 mL sample cell containing 15-25 µM Nef57-205. ITC titrations were performed at 25 °C, using 10 - 15 µl injections every 300 secondes. All inhibitors were also titrated into ITC buffer alone, and the resulting heat of dilution was subtracted from the experimental curves. ITC was performed with a VP ITC MicroCalorimeter from MicroCal Inc., and data were fitted with Microcal Origin™ software. The results are summarized in Table I and illustrated in Figure 1.
(In general: ITC needs no label: the signal is the heat of the interaction.)

The test system of assay [1] is Nef-mediated MHC-I down-regulation. Briefly: MHC-I down-regulation by Nef in Nef-GFP transfected human PBMC (flow cytometry). Type of assay: cell-based. The conditions noted are these: 25µM or 10µM for 3 hr, compared with 5µM LY294002 as control. The protocol: (§1) Nef advances the endocytosis and degradation of […] surface proteins, including CD4 and MHC proteins (Schwartz et al., 1996, Nature Medecine 2:338-342). Consequently, some compounds of the instant invention were tested for their ability to prevent their degradations by interacting with Nef. Human peripheral blood mononuclear cells (PBMC) from healthy volunteers were purified by Ficoll gradient centrifugation ( Lymphoprep™, Axis-shield). Washed, isolated PBMC were transiently transfected using the nucleofection technology (human T cell Nucleofector™ kit, 5.10^6 cells, 5µg plasmid DNA Nef-GFP or GFP (Nucleofactor Program V-024™, Amaxa Biosystems)). The same Nef sequence as described above in example 1 was cloned in pEGFP-N3 (Clonetech). […]
(§2) At 45 hr post transfection cells were treated with 25 µM of Compound X or 0.5% DMSO (control) for 3 hrs. Cells were then incubated with human anti-CD4+-PE or human anti-HLA-ABC (MHC-I) and analyzed by flow cytometry. Flow Cytometric Analysis were performed as follows: Cells were washed and resuspended in fluorescence-activated cell sorter (FACS) medium (PBS 2% FCS 0.02% NaN3, pH 7.2). […] Cells were washed and analyzed on FACS scan using Flow Jo software™ (Beckman Coulter for 20100326 and BD Pharmingen for 551497).
(§3) Viable CD4+ T cells were analyzed for GFP and anti-CD4+ (panel A, figure 2) or GFP and anti-HLA-ABC (panel B, figure 2) staining. […]
Background: In flow cytometry, cells or beads pass a laser one at a time.

Assay [2] deals with Nef-mediated CD4 down-regulation. Briefly: CD4 down-regulation by Nef in Nef-GFP transfected human PBMC (flow cytometry). The conditions noted are these: 25µM or 10µM for 3 hr. The format is cell-based. How it is done: as §1, §2, §3

Usually Kd stands for the constant that tells how readily two partners part at equilibrium.

Entries after “also recorded” stand apart in the source; their conditions may differ.

On Nef57-205, `CC(C)(C)c1ccc(OC(=O)Nc2ccc(O)c(C(=O)O)c2)cc1` [Compound X, 2-hydroxy-5-[(4-tert-butylphenoxy)carbonylamino]benzoic acid] displayed a Kd of 1.8 ± 0.85 µM, a ΔH of -0.956 ± 0.096 kcal/mol, a TΔS of 6.88 kcal/mol and a ΔG of -7.84 kcal/mol. The same compound showed a N on Nef57-205 of 0.83 ± 0.06. Further, the “Nef-mediated MHC-I down-regulation” value in assay [1] was “reduce in a dose-dependent manner; also recorded: partially blocked”. For the same compound, the “Nef-mediated CD4 down-regulation” value in assay [2] is reported as “not”.

On Nef57-205, `CC(C)(C)c1ccc(OCC(=O)Nc2cccc(C(=O)O)c2)cc1` [Compound Y, 3-{[(4-tert-butylphenoxy)acetyl]amino}benzoic acid] returned a Kd of 0.98 ± 0.3 µM, a ΔH of -0.765 ± 0.0478 kcal/mol, a TΔS of 7.41 kcal/mol and a ΔG of -8.17 kcal/mol. The N at Nef57-205 is listed as 1.14 ± 0.1.
